Reference: article PMC6930522, “Structure-Based Pharmacophore Modeling, Virtual Screening, Molecular Docking and Biological Evaluation for Identification of Potential Poly (ADP-Ribose) Polymerase-1 (PARP-1) Inhibitors” (Molecules, 2019)
Like-named read-outs stand apart in the source and are kept apart here.

Legend:
PARP-3 = biological target: T1, PARP-3 (Homo sapiens, UniProt Q9Y6F1); assay: In vitro PARP inhibition assay (PARP-3); type: biochemical; conditions: Table 4
T1 construct: purchased Trevigan (Gaithersburg, MD, USA)
T1 sequence (Q9Y6F1 1-533): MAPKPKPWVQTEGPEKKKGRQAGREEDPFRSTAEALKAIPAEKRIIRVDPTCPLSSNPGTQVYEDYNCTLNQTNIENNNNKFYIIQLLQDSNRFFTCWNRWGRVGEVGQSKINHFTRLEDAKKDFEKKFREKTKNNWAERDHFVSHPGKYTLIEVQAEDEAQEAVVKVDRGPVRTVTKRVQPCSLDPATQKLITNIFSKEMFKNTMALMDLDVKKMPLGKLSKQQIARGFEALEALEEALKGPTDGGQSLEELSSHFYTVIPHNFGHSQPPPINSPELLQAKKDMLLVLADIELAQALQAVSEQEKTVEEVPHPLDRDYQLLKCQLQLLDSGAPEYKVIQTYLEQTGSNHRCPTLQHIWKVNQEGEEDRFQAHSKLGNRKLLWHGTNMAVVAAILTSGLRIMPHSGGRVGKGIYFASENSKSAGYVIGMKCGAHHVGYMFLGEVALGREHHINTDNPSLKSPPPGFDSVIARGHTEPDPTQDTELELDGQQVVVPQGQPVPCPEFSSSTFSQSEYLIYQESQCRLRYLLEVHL
Protocol: (§1) Purified recombinant human PARPs from Trevigan (Gaithersburg, MD, USA) was used to determine the IC50 values of a PARP inhibitor. The PARP enzyme assay was set up on ice in a volume of 100 μL consisting of 50 mM Tris–HCl (pH 8.0), 2 mM MgCl2, 30 μg/mL of DNase activated herring sperm DNA (Sigma, MO, USA), 30 μM [^3H]nicotinamide adenine dinucleotide (67 mCi/mmol), 75 μg/mL PARP enzyme and various concentrations of the compounds to be tested. The reaction was initiated by incubating the mixture at 25 °C. After 15 min of incubation, the reaction was terminated by adding 500 μL of ice cold 20% (w/v) trichloroacetic acid. The formed precipitate was transferred onto a glass fiber filter (Packard Unifilter–GF/B) and washed three times with ethanol. After the filter is dried, the radioactivity is determined by scintillation counting.

[1] = system: human lung cancer A549 cells; assay: MTT assay, proliferation of A549 cells; type: cell-based; conditions: 48 h, different concentrations, Figure 5
Protocol: A549 cells were seeded in a 96-well culture plate and allowed to grow overnight. Then, cells were exposed to different concentrations of compounds 1–4 and incubated at 37 °C for 48 h. After that, an MTT stock solution (0.5 mg/mL) was added into each well and the plate was incubated for 4 h. The 150 µL of DMSO was used for fixing the MTT-treated cells and the absorbance of each sample was recorded at 490 nm with a Microplate Spectrophotometer.

PARP-2 = biological target: T2, PARP-2 (Homo sapiens, UniProt Q9UGN5); assay: In vitro PARP inhibition assay (PARP-2); type: biochemical
T2 construct: purchased Trevigan (Gaithersburg, MD, USA)
T2 sequence (Q9UGN5 whole entry): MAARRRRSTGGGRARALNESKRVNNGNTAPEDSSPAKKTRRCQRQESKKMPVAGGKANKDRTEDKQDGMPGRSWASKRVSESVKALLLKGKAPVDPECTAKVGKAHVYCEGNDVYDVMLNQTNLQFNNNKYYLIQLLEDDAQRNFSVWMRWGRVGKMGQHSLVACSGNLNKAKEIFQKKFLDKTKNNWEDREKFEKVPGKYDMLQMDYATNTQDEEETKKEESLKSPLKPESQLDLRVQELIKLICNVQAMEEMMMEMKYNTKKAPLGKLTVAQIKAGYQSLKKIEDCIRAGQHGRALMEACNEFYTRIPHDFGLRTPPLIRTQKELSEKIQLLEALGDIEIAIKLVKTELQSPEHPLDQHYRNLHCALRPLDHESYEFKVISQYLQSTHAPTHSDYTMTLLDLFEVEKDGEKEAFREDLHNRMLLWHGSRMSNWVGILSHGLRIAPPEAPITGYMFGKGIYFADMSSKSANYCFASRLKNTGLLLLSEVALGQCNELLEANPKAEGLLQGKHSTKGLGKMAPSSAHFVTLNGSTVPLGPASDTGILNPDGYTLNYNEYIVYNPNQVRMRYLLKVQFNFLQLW
Protocol: as §1

PARP-1 = biological target: T3, PARP-1 (Homo sapiens, UniProt P09874); assay: In vitro PARP inhibition assay (PARP-1); type: biochemical; conditions: Table 3; PARP-1 enzyme assay, mean ± SD, three independent experiments
T3 construct: purchased Trevigan (Gaithersburg, MD, USA)
T3 sequence (P09874 whole entry): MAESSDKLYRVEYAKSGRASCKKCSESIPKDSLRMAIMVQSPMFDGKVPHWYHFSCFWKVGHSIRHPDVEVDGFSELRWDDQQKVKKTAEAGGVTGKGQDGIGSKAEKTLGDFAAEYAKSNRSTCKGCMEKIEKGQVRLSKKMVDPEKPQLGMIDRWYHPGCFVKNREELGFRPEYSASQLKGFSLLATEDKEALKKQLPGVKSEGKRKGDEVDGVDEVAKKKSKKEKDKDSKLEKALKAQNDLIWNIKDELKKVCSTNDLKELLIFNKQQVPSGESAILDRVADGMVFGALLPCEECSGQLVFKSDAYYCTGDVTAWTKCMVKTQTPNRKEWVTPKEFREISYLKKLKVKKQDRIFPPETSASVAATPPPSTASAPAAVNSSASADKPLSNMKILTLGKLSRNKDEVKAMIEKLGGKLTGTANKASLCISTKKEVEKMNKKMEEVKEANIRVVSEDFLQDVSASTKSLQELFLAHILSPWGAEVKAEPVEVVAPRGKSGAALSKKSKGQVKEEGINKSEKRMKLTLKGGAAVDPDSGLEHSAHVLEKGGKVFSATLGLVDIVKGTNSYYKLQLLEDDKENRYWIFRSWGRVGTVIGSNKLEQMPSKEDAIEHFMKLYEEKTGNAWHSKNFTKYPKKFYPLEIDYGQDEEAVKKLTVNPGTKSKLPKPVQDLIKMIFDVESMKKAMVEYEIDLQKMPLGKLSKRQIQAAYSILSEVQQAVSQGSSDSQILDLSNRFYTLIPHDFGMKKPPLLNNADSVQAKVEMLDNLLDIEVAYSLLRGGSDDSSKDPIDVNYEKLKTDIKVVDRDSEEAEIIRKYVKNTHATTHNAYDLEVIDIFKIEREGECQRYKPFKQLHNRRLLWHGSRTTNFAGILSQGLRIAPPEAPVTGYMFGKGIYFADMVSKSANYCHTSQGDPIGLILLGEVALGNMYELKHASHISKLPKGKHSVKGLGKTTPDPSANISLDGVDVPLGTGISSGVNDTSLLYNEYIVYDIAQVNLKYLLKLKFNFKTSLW
Protocol: as §1

Row | Compound | IC50 (PARP-3) [nM] | Inhibition of growth/proliferation of A549 cells [1] | IC50 (PARP-2) [nM] | IC50 (PARP-1) [nM] | IC50 (PARP-2; Table 4, read-out: PARP-2) [nM] | PARP-2/PARP-1 (PARP-2; selectivity ratio of IC50 values)
1 | NC(=O)c1cccc2c1C(=O)N(C1CCN(Cc3ccc(F)cc3)CC1)C2 [Compound 1] | > 100000 | stronger anti-proliferation effects than compounds 2 and 3 | > 35000 |  |  | 
2 | CN(C)CCNc1ccc2[nH]c(=O)c3ccccc3c2n1 [Compound 2] |  |  |  | 190 ± 26 |  | 
3 | CC(=O)Nc1cccc(Cn2c(=O)[nH]c(=O)c3ccccc32)c1 [Compound 3] |  |  |  | 160 ± 13 |  | 
4 | CCc1ccc(-c2nc3cccc4c3n2CCNC4=O)cc1 [Compound 4] | > 100000 | stronger anti-proliferation effects than compounds 2 and 3 |  | 65 ± 8 | > 35000 | >1000
5 | Cc1nc2c(O)cccc2c(=O)[nH]1 [NU1025, reference compound] |  |  |  | 400 ± 35 |  | 
